Square brackets hold non-standard residues; d marks the D form. Peptide text beside a SMILES is read from it. * marks the point of attachment. PEG10 = NCCOCCOCCOCCOCCOCCOCCOCCOCCOCCOCCC(=O)O; Palmitoyl = CCCCCCCCCCCCCCCC(=O)*

Usually EC50 stands for the concentration at which the effect is half-maximal.

Series [1] is described as follows: Cytotoxicity (calcein / ethidium homodimer live-dead staining). The format is cell-based. To be noted: human, nHLF cultures, 36 hours culture; for viability at 36 h: normal human lung fibroblasts (nHLF), up to 100 μM PA, read-out: cells staining positive for calcein (percent viable cells). As for the experimental part:
Cytotoxicity: Normal Human Lung Fibroblasts were obtained from Lonza and maintained in growth medium consisting of DMEM with 10% fetal bovine serum (FBS) and 1% penicillin/streptomycin. Cells (passage 5) were tryspinized and resuspended in media containing 2% FBS and 150 μl of the cell suspension was added to each well of a 96 well microplate for a total of 2,500 cells per well. After 2 hours attachment, 50 μl PA solutions diluted in PBS to 4 μM, 20 μM, 100 μM, or 400 μM were added to each well. After 36 hours culture, the media was removed and replaced with a solution of 2 μM calcein and 4 μM ethidium homodimer in PBS. After 30 minutes, cells were imaged using a Cytation 3 microplate reader. Live and Dead cells were counted using the MATLAB image Processing Toolbox to determine viability.

A short description of series [2]: Zeta potential of PA solutions. To be noted: for surface charge (zeta-potential), sign: neutral pH. It is filed as physicochemical. As for the experimental part: Zeta potential: Heat-treated PA solutions were diluted 20 times in 30 mM NaCl with 10 mM HCl, 30 mM NaCl, or 30 mM NaCl with 10 mM NaOH for pH 2, pH 7, and pH 12 respectively. For each PA, three separate samples were prepared at each pH. Samples were loaded in a disposable folded capillary cell and zeta-potential was measured at 25° C. using a Zetasizer Nano ZS (Malvern Instruments, Malvern, UK). The average of the three measurements for each sample was plotted.

Series [3] can be described thus: Nile red assay of aggregation. It is filed as physicochemical. To be noted: buffers of 0 mM, 15 mM and 150 mM NaCl. As for the experimental part:
Nile Red Assay: Following heat treatment, PA solutions were serially diluted in water (0 mM NaCl), or a buffer of 15 mM NaCl, or 150 mM NaCl. A solution of 100 μM Nile red was added to the PA solutions to one thousandth the total volume and incubated for 1 hour. The fluorescence spectrum was read from 600 nm to 700 nm using a BioTek Cytation 3 microplate reader using 560 nm excitation and the fluorescence shift was determined by subtracting the maximum […] wavelength for each sample from that of the dye solution diluted in each buffer alone.

Series [4] deals with Human mesenchymal stem cells. The series is described as follows: Alkaline phosphatase (ALP) activity, osteogenic differentiation. The format is cell-based. Particulars: human MSCs, one week. As for the experimental part: Alkaline Phosphatase Activity: Human mesenchymal stem cells were obtained from Lonza and maintained in Mesenchymal Stem Cell Growth Media (Lonza). Cells were used for experiments prior to passage 6. Cells were trypsinized and resuspended in growth media containing high glucose DMEM supplemented with 10% FBS and 1% penicillin/streptomycin and 50 mg/L sodium ascorbate. 500 μl of the cell suspension was placed in each well of a 24 well plate and incubated for 24 hours. Media was removed and replaced with 540 μl of growth media or osteogenic media containing low glucose DMEM supplemented with 10% FBS, 50 mg/L sodium ascorbate 10 mM 3-glycerophosphate, and 100 nM dexamethasone. 60 μl of a 10 times concentrated PA solution in PBS was then added to each well. Every 3-4 days, media was replaced by removing 300 μl media and adding 270 μl growth media or osteogenic media and 30 μl of the 10 times concentrated PA solution in PBS. Alkaline phosphatase (ALP) activity was determined using the SensoLyte pNPP ALP Assay Kit (Anaspec, Fremont, CA) according to the manufacturer's instructions. […] The supernatant was mixed with the assay's detection buffer in a microplate and the optical absorbance was read after a four-hour incubation using a Cytation 3 microplate reader. […]

A short description of series [5]: Resuspension of purified PA in water. The format is physicochemical. To be noted: purified molecule in water. As for the experimental part:
Solubilization and Heat Treatment: PA powders were resuspended to 10 mM in water for experiments at pH 7, in 10 mM hydrochloric acid for pH 2 and 10 mM sodium hydroxide for pH 12. After resuspension, 1 M sodium hydroxide or 1 M hydrogen chloride were added to achieve the desired pH. To co-assemble PA molecules, PA solutions were mixed volumetrically, bath sonicated for 1 hour and then left on the bench to age for at least 2 hours. A solution of 150 mM NaCl was added to all samples to achieve a final NaCl concentration of 30 mM. All samples were heat treated at 80° C. for 30 minutes followed by gradual cooling by 1° C. per minute to 25° C.
To produce PA filaments without ionic charge, a short PEG chain was substituted for the ionizable amino acids typically included in PA molecules to maintain solubility of the PA in an aqueous environment. To form an uncharged PA filament, the sequence N-palmitoyl-VVAA was chosen as the aliphatic tail and hydrogen bonding peptide. As the hydrophilic domain, a 10-mer PEG amino acid was selected, which was hypothesized to be long enough to solubilize the PA while limiting steric repulsion among assembled molecules (PA1, FIG. 2A). The PA was synthesized by coupling the PEG amino acid to a rink-amide resin and completing the peptide using standard Fmoc solid phase peptide synthesis, leaving an uncharged amide group after cleavage from the resin. […]

For `CCCCCCCCCCCCCCCC(=O)N[C@H](C(=O)N[C@H](C(=O)N[C@@H](C)C(=O)N[C@@H](C)C(=O)N[C@@H](CCCCN)C(=O)N[C@@H](CCCCN)C(N)=O)C(C)C)C(C)C` [PA3] (Palmitoyl-VVAAKK-NH2), the EC50 at 36 h in series [1] (Normal Human Lung Fibroblasts (nHLF)) is 25 ± 4 µM. The “surface charge (zeta-potential), sign” value in series [2] is reported as “positively charged”. Moreover, the “aggregation as indicated by redshift in Nile red fluorescence, dependence on ionic strength” value in series [3] is “less dependent on ionic strength than PA2”.
Consider `CCCCCCCCCCCCCCCC(=O)N[C@H](C(=O)N[C@H](C(=O)N[C@@H](C)C(=O)N[C@@H](C)C(=O)N[C@@H](CCC(=O)O)C(=O)N[C@@H](CCC(=O)O)C(N)=O)C(C)C)C(C)C` [PA2] (Palmitoyl-VVAAEE-NH2), for which the viability at 36 h in series [1] was greater than 85%. For the same compound, the “ALP activity (osteogenic differentiation) in growth media” value in series [4] (growth media, various PA concentrations) is on record as “increased with increasing PA2 concentration”. Besides, the “ALP activity (osteogenic differentiation) in osteogenic media” value in series [4] (osteogenic media with dexamethasone and β-glycerophosphate) is “did not affect differentiation”. In addition, the “surface charge (zeta-potential), sign” value in series [2] was “negatively”. The “aggregation as indicated by redshift in Nile red fluorescence, dependence on ionic strength” value in series [3] is given as “depended on ionic strength of the buffer”.
Turning to N-palmitoyl-VVAAEE-PEG10 [PA4], in series [2] (pH 2), the “Zeta-potential (surface charge)” value is roughly 0 mV.
N-palmitoyl-VVAAKK-PEGio [PA5]: in series [2] (pH 12), the “Zeta-potential (surface charge)” value was roughly 0 mV.
Take `CCCCCCCCCCCCCCCC(=O)N[C@H](C(=O)N[C@H](C(=O)N[C@@H](C)C(=O)N[C@@H](C)C(=O)NCCOCCOCCOCCOCCOCCOCCOCCOCCOCCOCCC(N)=O)C(C)C)C(C)C` [PA1] (Palmitoyl-VVAA[PEG10]-NH2): in series [1], the viability at 36 h was greater than 85%. Further, the “solubility in water (resuspension)” value in series [5] is on record as “readily resuspended in water”.

These data come from patent publication US11998589B2, “PEGylated peptide amphiphile nanofibers and methods of use” (Northwestern University, priority 2020, dated 2024).
